Results on 1 molecule are retold here after patent US20080188447A1, “Glucocorticoid-lowering composition” (priority 2007, published 2008).

This assay can be described thus: Daily food intake with subcutaneous steroid supplementation (Example 3). In kind it is in vivo, rat. Conditions: group C (oral corn oil vehicle, no extract), steroid 5 mg/kg/day sc on days 4 and 5. As to the method: Male Wistar rats weighing about 250 g (2 groups designated as group C, control; and E, experimental treatment; 24 individuals per group) were kept as described in the Example 1 from day 1 to day 6 of the experiment. On days 1 through 4, a botanical extract from a plant Asclepias incarnata enriched with pregnane derivatives according to Formula (I) was administered orally in doses of 100 mg/kg body weight/day in 1 ml of corn oil (Sigma #C8267). As a negative control (vehicle), animals were administered orally with 1 ml of corn oil alone. On day 4 of the experiment both groups of animals C and E were further subdivided into 6 groups containing 4 animals each, designated C, control; PREG, pregnenolone; PROG, progesterone; DEOX, deoxycorticosterone; CORT, corticosterone; and DHEA, dehydroepiandrosterone. On day 4 and day 5, animals from these subgroups received a subcutaneous injection of 5 mg/kg body weight/day of the respective steroid compound in 5% DMSO and corn oil; total volume of 0.1 ml. The control animals in group C subgroup C and group E subgroup C received a subcutaneous injection of vehicle (5% DMSO in corn oil) only. On days 4 and 6 food intake was measured. […]

For `C[C@]12C[C@H](O)[C@H]3[C@@H](CCC4=CC(=O)CC[C@@]43C)[C@@H]1CC[C@@H]2C(=O)CO` [CORT, corticosterone], the “Daily food intake, Day 6” value is given as “no direct effect on food intake alone”.
